Here are results for four compounds from patent US20220193043A1 (CIPLA LIMITED, priority 2019, published 2022).

Where only a bound is given, the exact number is not on record here.

The procedure of series [1]: Bioanalysis was performed using a fit-for-purpose LC-MS/MS method for the quantification of tenofovir in rat plasma samples. The calibration curve (CC) for the method consisted of nine non-zero calibration standards along with a double blank and zero standard samples. Study samples were analyzed along with three sets of quality control samples (18 QC samples; low, medium and high QC samples).
Plasma pharmacokinetic parameters were calculated using the non-compartmental analysis tool of Phoenix software (Version 6.3) and were determined from individual animals in each group. The peak plasma concentration (C), time to achieve peak plasma concentration (Tmax), the area under the plasma concentration-time curve (AUC0-t and AUCinf), AUC Extra (%), elimination half-life (T1/2), clearance (CL), volume of distribution Vd (L/kg) and Mean residence time (MRT) were calculated from intravenous group. The peak plasma concentration (C), time to achieve peak plasma concentration (T), AUC0-t and AUCinf, AUC Extra (%), Mean residence time (MRT) and absolute oral bioavailability (F) were calculated from the oral group.

The next series deals with Staphylococcus aurues. The settings on record: cited from earlier work.
The conditions of series [2]: cited from earlier work.

With `[2H]C1([2H])N=C(Nc2c(Cl)ccc3nsnc23)NC1([2H])[2H]` [Tizanidine D4], the “CLF_Obs(PO)” value in series [1] (rat plasma, 3 mg/kg PO) is on record as 405 ± 189 mL/min/kg. `COc1ccc2cc3[n+](cc2c1OC)CCc1cc2c(cc1-3)OCO2` [berberine]: the antimicrobial activity result in the series with Staphylococcus aurues (berberine alone, in solution) is reported as “very weak”. Also, the “increase of antimicrobial activity of berberine” value with Staphylococcus aurues (in combination with 5-Methoxy hydnocarpin (5-MIC), against Staphylococcus aurues) is reported as 200 folds. In the case of `Oc1ccc(C=Cc2cc(O)cc(O)c2)cc1` [resveratrol], in series [2], the water solubility was below 50 µg/mL. Turning to “Tizanidine hydrochloride [Tizanidine HCl]”, in series [1] (rat, in vivo, po, 3 mg/kg), the AUCINF was 111 ± 20 ng·h/mL, the AUClast came out at 106 ± 17.7 ng·h/mL and the “Vz/F_obs(PO)” value was determined as 71.9 ± 36.1 L/kg.
